These results are taken from patent US20140155362A1, “BHQ-CONJUGATES, AND RELATED COMPOUNDS, METHODS OF MAKING THE SAME, AND METHODS OF USE THEREOF” (priority 2011, published 2014).

In this test the test system is cultured dorsal root ganglia (DRG) cells. Type of test: cell-based, mouse.

For `CCCCCCCCC(=O)NCc1ccc(OCc2ccc3ccc(O)c(Br)c3n2)c(OC)c1` [BHQ-VNA], the “electrophysiological response after light pulse” value is reported as “immediate potential change is observed that is indistinguishable from the VNA trace” and the “electrophysiological response, bath applied, without light” value was “does not have any affect”.

Turning to `CCCCCCCCC(=O)NCc1ccc(O)c(OC)c1` [VNA, N-vanillyl nonanamide, reference compound], under “single DRG neuron, via TRPV1 channels”, the “electrophysiological response (extracellular potential) on topical application” value is “strong and immediate electrophysiological response”.
